Test results reported in paper PMC8348110, “A Novel Peptide Derived from the Transmembrane Domain of Romo1 Is a Promising Candidate for Sepsis Treatment and Multidrug-Resistant Bacteria” (International Journal of Molecular Sciences, 2021).
≈ marks a conversion by molar mass, not a printed value. Residues, ends and D or L forms follow the SMILES beside them.

Key:
HeLa cells = format: cell-based, human
Method: Mammalian cell viability was measured using a 3-(4,5-dimethylthiazol-2-yl)-2,5-diphenyltetrazolium bromide (MTT) assay in HeLa and HEK 293 cells. Cells were cultured on 96-well plates and incubated separately with AMPR-11, AMPR-21, AMPR-22, magainin 2, or daptomycin. After incubation for an hour, the cells were incubated with MTT solution (2 mg/mL of MTT in PBS) for an hour, and the media were removed, and dimethyl sulfoxide was added to allow the MTT formazans to solubilize. The optical density was measured using a SpectraMax Plus 384 microplate reader (Molecular Devices, San Jose, CA, USA) at 550 nm.

mouse erythrocytes = experiment: Hemolysis assay; format: cell-based; settings: 2% erythrocytes in PBS, 1 h 37 °C, absorbance 550 nm; concentrations up to 256 µg/mL
Method: (§1) For the hemolytic assay, mouse and human whole blood was diluted with PBS (pH 7.4) and centrifuged for 10 min at 500× g. After removing the supernatant and rinsing the pellet three times with PBS, we resuspended the erythrocytes in PBS at 2% volume. The blood solution was added to the solution of peptides with two-fold serial dilution on a 96-well plate. After incubation for an hour at 37 °C, the plate was centrifuged at 2500× g for 10 min, and the absorbance of the supernatant was measured at 550 nm. The PBS-treated sample was the negative control, and the 0.1% Triton X-100–treated sample was the positive control. To measure white blood cell toxicity, mouse and human PBMCs were freshly isolated as previously described, and 70% ethanol (positive control) or AMPR-22 was administered using two-fold diluted concentrations (0 to 256 μg/mL) for 30 min. To measure cell death, a LIVE/DEAD® fixable green dead cell stain kit (Thermo Fisher Scientific, Waltham, MS, USA) was used following the manufacturer′s instructions, and flow cytometry was performed using a FACS Canto II (BD Biosciences, CA, USA). The toxicity of AMPR-22 was compared with negative (PBS-treated) and positive controls, and the data were analyzed using FlowJo software (Tree Star, OR, USA).

human erythrocytes = experiment: Hemolysis assay; format: cell-based; settings: 2% erythrocytes in PBS, 1 h 37 °C, absorbance 550 nm; up to / at 256 µg/mL
Method: as §1

[1] = tested on: Carbapenem-resistant A. baumannii, clinical isolate; format: cell-based, Acinetobacter baumannii; settings: 1 h
Text: Acinetobacter baumannii (ATCC 19606), B. subtilis (ATCC 6633), E. aerogenes (ATCC 13048), E. coli (ATCC 25922), E. faecalis (ATCC 19433), E. faecium (ATCC 19434), K. pneumoniae (ATCC 13883), P. aeruginosa (ATCC 27853), S. aureus (ATCC 29213), S. sindenensis (ATCC 23963), and MRSA (ATCC 33591) were purchased from the American Type Culture Collection (ATCC; Gaithersburg, MD, USA). Streptococcus pneumoniae (NCCP 14585), vancomycin-resistant E. faecium (NCCP 11522), and vancomycin-resistant S. aureus (NCCP 15872) were purchased from the National Culture Collection for Pathogens (NCCP; Cheongju, Korea). The isolation and use of carbapenem-resistant bacterial strains from a patient were approved (2015AN0129) by the Institutional Review Board (IRB) of Korea University Hospital. […]
The minimum bactericidal concentration (MBC) was determined as previously described with minor modifications. […] The value of MBC was determined at the lowest concentrations at which no colonies were identified.
We used the CFU counting method to measure antibacterial activity, with all bacteria cultured to the mid-log phase in an appropriate broth medium. Bacterial CFUs were counted after overnight culture at 37 °C on TS or LB agar plates. The MBC value and antibacterial activity in blood components were determined as previously described. […]

human PBMCs = experiment: White blood cell toxicity assay (LIVE/DEAD stain, flow cytometry); format: cell-based; settings: freshly isolated PBMCs, 0 to 256 μg/mL for 30 min
Method: as §1

mouse PBMCs = experiment: as above; format: cell-based; settings: freshly isolated PBMCs, 0 to 256 μg/mL for 30 min
Method: as §1

## CC[C@H](C)[C@H](NC(=O)CNC(=O)CNC(=O)[C@@H](NC(=O)[C@H](C)NC(=O)[C@H](CCSC)NC(=O)[C@H](Cc1ccccc1)NC(=O)[C@@H](NC(=O)CNC(=O)[C@H](Cc1ccccc1)NC(=O)[C@H](CCCCN)NC(=O)CNC(=O)CNC(=O)[C@H](CCCCN)NC(=O)[C@H](CCCCN)NC(=O)[C@H](CCSC)NC(=O)[C@H](CCSC)NC(=O)[C@H](CCCCN)NC(=O)[C@@H](N)CCCCN)[C@@H](C)O)[C@@H](C)CC)C(=O)N[C@@H](CCCNC(=N)N)C(=O)O [AMPR-22] (H-KKMMKKGGKFGTFMAIGGIR-OH)
HeLa cells
  Cytotoxicity, HeLa cells: slight cytotoxicity
Mouse erythrocytes
  Hemolytic activity against mouse erythrocytes: relatively endurable hemolysis properties
Human erythrocytes
  Hemolytic activity against human erythrocytes: negligible hemolytic activity
[1]
  MBC Value, Carbapenem-resistant A. baumannii: 1 µg/mL (≈ 0.457 µM)
Human PBMCs
  Cytotoxic activity against human leukocytes: negligible cytotoxic activity
Mouse PBMCs
  Cytotoxic activity against mouse leukocytes: negligible cytotoxic activity
